The text below walks through data of patent US10022374B2, “Certain protein kinase inhibitors” (Shanghai Fochon Pharmaceutical Co., Ltd., priority 2013, dated 2018).

As a reminder, the IC50 is the concentration that gives 50% inhibition.

Where two headings read alike, the source gives them in different places.

For one assay, the system named is A-375 cells. The assay can be described thus: Inhibition of cell proliferation (MTS), A-375 cells. Type of assay: cell-based. The protocol:
(§1) MTS testing kit was purchased from Promega. The DMEM, RPMI-1640 and Fetal bovine serum were purchased from Gibco. Dimethyl sulfoxide (DMSO) was purchased from Sigma.
(§2) To investigate whether a compound is able to inhibit the activity of MEK in cells, a mechanism-based assay using A-375 and HT-29 cell was developed. In this assay, inhibition of MEK was detected by the inhibition of A-375 and HT-29 cells proliferation. A-375 and HT-29 cells were cultured in culture flasks to 40-80% confluence respectively in DMEM and RPMI-1640 plus 10% fetal bovine serum. Cells were collected and plated onto 96-well plates at desired cell density (A-375: 3000 cells/well; HT-29: 5000 cells/well). Plates were incubated overnight at 37° C., with 5% CO2 to adhere. Compounds were added to the plates. The final compound concentrations were […], 12.35, 4.12, 1.37, 0.46 and 0.15 nM, respectively. Place plates at 37° C., with 5% CO2 for 72 h. 10 μl MTS were added to each well and incubate the plates for exactly 2 hours. Absorbance was measured at 490 nm. […] was calculated using GraphPad Prism 5.0.

A further assay concerns HT-29 cells. The assay can be described thus: Inhibition of cell proliferation (MTS), HT-29 cells. Type of assay: cell-based. The protocol:
as §1, §2

The mark [1] stands for this setting: Homo sapiens, A-375, 72 h, A-375 cells, 3000 cells/well, 72 h, MTS, absorbance 490 nm, read-out: A375 IC50.
Setting [2] is: Homo sapiens, HT-29, 72 h, HT-29 cells, 5000 cells/well, 72 h, MTS, absorbance 490 nm, read-out: HT29 IC50.
[3] abbreviates: Homo sapiens, A-375, 72 h, read-out: A375 IC50 (nM).
Setting [4] is: Homo sapiens, HT-29, 72 h, read-out: HT29 IC50 (nM).

As to `C=CCn1nc(-c2cccc(NS(=O)(=O)C(C)C)c2)c2c(c(Nc3ccc(I)cc3F)c(F)c(=O)n2C)c1=O` [Example 33, N-(3-(6-allyl-3-fluoro-4-(2-fluoro-4-iodophenylamino)-1-methyl-2,5-dioxo-1,2,5,6-tetrahydropyrido[2,3-d]pyridazin-8-yl)phenyl)propane-2-sulfonamide], the IC50 in the assay with A-375 cells (setting [1]) worked out at 12.6 nM; with HT-29 cells (setting [2]), 7.2 nM.

`C=CCn1nc(-c2cccc(NS(=O)(=O)C3CC3)c2)c2c(c(Nc3ccc(I)cc3F)c(F)c(=O)n2C)c1=O` [Example 34, N-(3-(6-allyl-3-fluoro-4-(2-fluoro-4-iodophenylamino)-1-methyl-2,5-dioxo-1,2,5,6-tetrahydropyrido[2,3-d]pyridazin-8-yl)phenyl)cyclopropanesulfonamide]: the IC50 was 4.2 nM with A-375 cells (A-375 cells, 3000 cells/well, 72 h, MTS, absorbance 490 nm, read-out: A375 IC50) and 4.6 nM with HT-29 cells (HT-29 cells, 5000 cells/well, 72 h, MTS, absorbance 490 nm, read-out: HT29 IC50).

Turning to `C=CCn1nc(-c2cccc(NC(=O)C(C)C)c2)c2c(c(Nc3ccc(I)cc3F)c(F)c(=O)n2C)c1=O` [Example 35, N-(3-(6-allyl-3-fluoro-4-(2-fluoro-4-iodophenylamino)-1-methyl-2,5-dioxo-1,2,5,6-tetrahydropyrido[2,3-d]pyridazin-8-yl)phenyl)isobutyramide], the figures for the IC50 in the assay on A-375 cells (setting [1]) and in the assay with HT-29 cells (setting [2]) were 26.3 nM and 22.6 nM, respectively.

Take `C=CCn1nc(-c2cccc(NC(C)=O)c2)c2c(c(Nc3ccc(Br)cc3F)c(F)c(=O)n2C)c1=O` [Example 36, N-(3-(6-allyl-4-(4-bromo-2-fluorophenylamino)-3-fluoro-1-methyl-2,5-dioxo-1,2,5,6-tetrahydropyrido[2,3-d]pyridazin-8-yl)phenyl)acetamide]: the 50% inhibitory concentration (IC50) stood at 341 nM with A-375 cells (setting [1]) and 427 nM in the assay on HT-29 cells (setting [2]).

Turning to `C=CCn1nc(-c2cccc(NS(C)(=O)=O)c2)c2c(c(Nc3ccc(Br)cc3F)c(F)c(=O)n2C)c1=O` [Example 37, N-(3-(6-allyl-4-(4-bromo-2-fluorophenylamino)-3-fluoro-1-methyl-2,5-dioxo-1,2,5,6-tetrahydropyrido[2,3-d]pyridazin-8-yl)phenyl)methanesulfonamide], the 50% inhibitory concentration (IC50) in the assay on A-375 cells (setting [1]) was 32.4 nM; in the assay with HT-29 cells (setting [2]), 42.7 nM.

Take `CC(=O)Nc1cccc(-c2nn(CC(O)CO)c(=O)c3c(Nc4ccc(I)cc4F)c(F)c(=O)n(C)c23)c1` (stereo not shown) [Example 40, N-(3-(6-(2,3-dihydroxypropyl)-3-fluoro-4-(2-fluoro-4-iodophenylamino)-1-methyl-2,5-dioxo-1,2,5,6-tetrahydropyrido[2,3-d]pyridazin-8-yl)phenyl)acetamide]: the figures for the concentration for half-maximal inhibition (IC50) with A-375 cells (setting [1]) and in the assay with HT-29 cells (setting [2]) were 2.5 nM and 1.9 nM, respectively.

As to `CCC(=O)Nc1cccc(-c2nn(CC(O)CO)c(=O)c3c(Nc4ccc(I)cc4F)c(F)c(=O)n(C)c23)c1` (stereo not shown) [Example 41, N-(3-(6-(2,3-dihydroxypropyl)-3-fluoro-4-(2-fluoro-4-iodophenylamino)-1-methyl-2,5-dioxo-1,2,5,6-tetrahydropyrido[2,3-d]pyridazin-8-yl)phenyl)propionamide], the results for the concentration for half-maximal inhibition (IC50) with A-375 cells (setting [1]) and in the assay with HT-29 cells (setting [2]) were 399 nM and 315 nM, respectively.

Take `Cn1c(=O)c(F)c(Nc2ccc(I)cc2F)c2c(=O)n(CC(O)CO)nc(-c3cccc(NC(=O)C4CC4)c3)c21` (stereo not shown) [Example 42, N-(3-(6-(2,3-dihydroxypropyl)-3-fluoro-4-(2-fluoro-4-iodophenylamino)-1-methyl-2,5-dioxo-1,2,5,6-tetrahydropyrido[2,3-d]pyridazin-8-yl)phenyl)cyclopropanecarboxamide]: the IC50 with A-375 cells (setting [1]) is 180 nM; in the assay on HT-29 cells (setting [2]), 112 nM.

As to `Cn1c(=O)c(F)c(Nc2ccc(I)cc2F)c2c(=O)n(CC(O)CO)nc(-c3cccc(NS(C)(=O)=O)c3)c21` (stereo not shown) [Example 43, N-(3-(6-(2,3-dihydroxypropyl)-3-fluoro-4-(2-fluoro-4-iodophenylamino)-1-methyl-2,5-dioxo-1,2,5,6-tetrahydropyrido[2,3-d]pyridazin-8-yl)phenyl)methanesulfonamide], the IC50 is 3.6 nM with A-375 cells (setting [1]) and 4.6 nM in the assay with HT-29 cells (setting [2]).

Consider `CCS(=O)(=O)Nc1cccc(-c2nn(CC(O)CO)c(=O)c3c(Nc4ccc(I)cc4F)c(F)c(=O)n(C)c23)c1` (stereo not shown) [Example 44, N-(3-(6-(2,3-dihydroxypropyl)-3-fluoro-4-(2-fluoro-4-iodophenylamino)-1-methyl-2,5-dioxo-1,2,5,6-tetrahydropyrido[2,3-d]pyridazin-8-yl)phenyl)ethanesulfonamide], for which the IC50 with A-375 cells (setting [1]) amounted to 71.3 nM; with HT-29 cells (setting [2]) it was 57.7 nM.

Take `CC(C)S(=O)(=O)Nc1cccc(-c2nn(CC(O)CO)c(=O)c3c(Nc4ccc(I)cc4F)c(F)c(=O)n(C)c23)c1` (stereo not shown) [Example 45, N-(3-(6-(2,3-dihydroxypropyl)-3-fluoro-4-(2-fluoro-4-iodophenylamino)-1-methyl-2,5-dioxo-1,2,5,6-tetrahydropyrido[2,3-d]pyridazin-8-yl)phenyl)propane-2-sulfonamide]: the IC50 is 9.8 nM in the assay on A-375 cells (setting [1]) and 23.5 nM in the assay on HT-29 cells (setting [2]).

Consider `Cn1c(=O)c(F)c(Nc2ccc(I)cc2F)c2c(=O)n(CC(O)CO)nc(-c3cccc(NS(=O)(=O)C4CC4)c3)c21` (stereo not shown) [Example 46, N-(3-(6-(2,3-dihydroxypropyl)-3-fluoro-4-(2-fluoro-4-iodophenylamino)-1-methyl-2,5-dioxo-1,2,5,6-tetrahydropyrido[2,3-d]pyridazin-8-yl)phenyl)cyclopropanesulfonamide], for which the half-maximal inhibitory concentration (IC50) in the assay with A-375 cells (setting [1]) came out at 68.9 nM; in the assay with HT-29 cells (setting [2]), 24.2 nM.

Take `CN(c1cccc(-c2nn(C3CC3)c(=O)c3c(Nc4ccc(I)cc4F)c(F)c(=O)n(C)c23)c1)S(C)(=O)=O` [Example 47, N-(3-(6-cyclopropyl-3-fluoro-4-((2-fluoro-4-iodophenyl)amino)-1-methyl-2,5-dioxo-1,2,5,6-tetrahydropyrido[2,3-d]pyridazin-8-yl)phenyl)-N-methylmethanesulfonamide]: the IC50 in the assay with A-375 cells (setting [1]) worked out at 4.9 nM; with HT-29 cells (setting [2]), 16.6 nM.

In the case of `CC(C)S(=O)(=O)N(C)c1cccc(-c2nn(C3CC3)c(=O)c3c(Nc4ccc(I)cc4F)c(F)c(=O)n(C)c23)c1` [Example 48, N-(3-(6-cyclopropyl-3-fluoro-4-((2-fluoro-4-iodophenyl)amino)-1-methyl-2,5-dioxo-1,2,5,6-tetrahydropyrido[2,3-d]pyridazin-8-yl)phenyl)-N-methylpropane-2-sulfonamide], the values for the IC50 with A-375 cells (setting [1]) and in the assay with HT-29 cells (setting [2]) were 3.4 nM and 13.2 nM, respectively.

Consider `CN(c1cccc(-c2nn(C3CC3)c(=O)c3c(Nc4ccc(I)cc4F)c(F)c(=O)n(C)c23)c1)S(=O)(=O)C1CC1` [Example 49, N-(3-(6-cyclopropyl-3-fluoro-4-((2-fluoro-4-iodophenyl)amino)-1-methyl-2,5-dioxo-1,2,5,6-tetrahydropyrido[2,3-d]pyridazin-8-yl)phenyl)-N-methylcyclopropanesulfonamide], for which the IC50 with A-375 cells (setting [1]) was 2.5 nM; in the assay with HT-29 cells (setting [2]), 11.7 nM.

In the case of `CN(c1cccc(-c2nn(C)c(=O)c3c(Nc4ccc(I)cc4F)c(F)c(=O)n(C)c23)c1)S(C)(=O)=O` [Example 50, N-(3-(3-fluoro-4-((2-fluoro-4-iodophenyl)amino)-1,6-dimethyl-2,5-dioxo-1,2,5,6-tetrahydropyrido[2,3-d]pyridazin-8-yl)phenyl)-N-methylmethanesulfonamide], the values for the IC50 with A-375 cells (setting [1]) and in the assay on HT-29 cells (setting [2]) were 1.5 nM and 5.3 nM, respectively.

Regarding `CC(C)S(=O)(=O)N(C)c1cccc(-c2nn(C)c(=O)c3c(Nc4ccc(I)cc4F)c(F)c(=O)n(C)c23)c1` [Example 51, N-(3-(3-fluoro-4-((2-fluoro-4-iodophenyl)amino)-1,6-dimethyl-2,5-dioxo-1,2,5,6-tetrahydropyrido[2,3-d]pyridazin-8-yl)phenyl)-N-methylpropane-2-sulfonamide], the half-maximal inhibitory concentration (IC50) was 2.2 nM in the assay on A-375 cells (setting [3]) and 2 nM in the assay on HT-29 cells (setting [4]).

With `CN(c1cccc(-c2nn(C)c(=O)c3c(Nc4ccc(I)cc4F)c(F)c(=O)n(C)c23)c1)S(=O)(=O)C1CC1` [Example 52, N-(3-(3-fluoro-4-((2-fluoro-4-iodophenyl)amino)-1,6-dimethyl-2,5-dioxo-1,2,5,6-tetrahydropyrido[2,3-d]pyridazin-8-yl)phenyl)-N-methylcyclopropanesulfonamide], the 50% inhibitory concentration (IC50) in the assay with A-375 cells (setting [1]) was 5.7 nM; in the assay with HT-29 cells (setting [2]), 7.8 nM.

In the case of `Cn1c(=O)c(F)c(Nc2ccc(I)cc2F)c2c(=O)n(C3CC3)nc(-c3cccc(N4CCCC4=O)c3)c21` [Example 53, 6-cyclopropyl-3-fluoro-4-((2-fluoro-4-iodophenyl)amino)-1-methyl-8-(3-(2-oxopyrrolidin-1-yl)phenyl)pyrido[2,3-d]pyridazine-2,5(1H,6H)-dione], the half-inhibitory concentration (IC50) with A-375 cells (setting [1]) was determined as 7.8 nM; in the assay with HT-29 cells (setting [2]) it was 19.1 nM.

Take `Cn1nc(-c2cccc(N3CCCC3=O)c2)c2c(c(Nc3ccc(I)cc3F)c(F)c(=O)n2C)c1=O` [Example 54, 3-fluoro-4-((2-fluoro-4-iodophenyl)amino)-1,6-dimethyl-8-(3-(2-oxopyrrolidin-1-yl)phenyl)pyrido[2,3-d]pyridazine-2,5(1H,6H)-dione]: the IC50 is 4.7 nM in the assay with A-375 cells (setting [3]) and 7.9 nM in the assay on HT-29 cells (setting [4]).
